From US8921304B2, “Modified ubiquitin proteins having a specific binding activity for the extradomain B of fibronectin” (Scil Proteins GmbH, priority 2009, dated 2014)
Entries after “also recorded” stand apart in the source; their conditions may differ. Where two headings read alike, the source gives them in different places.

Experiments:
[1] = tested on: F9 teratoma; format: in vivo; settings: for effect on tumor growth: stage 1
Description: To establish the therapeutic efficacy of 1041-D11-TNFalpha, the compound was tested on F9 teratoma (see Borsi et al., 2003 Blood 102, 4384-4392) in mouse models. […] F9 teratoma is an aggressive tumor with high vascular density. […] The experimental schedule for the efficacy study was adapted from Borsi, 2003.
Stage 1 defined the pharmacologic active and tolerable dose with endpoints relating to the ratio of tumor vs. body weight, weight loss and survival. […]
Stage 2 of the study defined the dose-dependent efficacy with Melphalan having as endpoint the retardation of tumor growth (animal weight loss>10%, tumor>10% body weight, ulceration of tumor). In the study, 1041D11/mTNFa, murine TNFa, in combination with melphalan were tested.

[2] = molecular target: ED-B containing fibronectin fragment (67B89) (Homo sapiens, UniProt P02751); experiment: label-free interaction assay using BIACORE; format: binding
Description: Different concentrations of the variant were analyzed (for example, 0-200 nM of the variant, preferably 1041-D11) for binding to an ED-B containing fibronectin fragment (referred to as 67B89) immobilized on a CMS-chip (BIACORE®) using methods known to those skilled in the art. The obtained data were processed via the BIAevaluation software and 1:1-Langmuir-fitting. The kinetic binding constants were kon=7.6*10^5 M^−1s^−1; koff=7.7*10^−4 s^−1. The kinetic binding constants were kon=4.5*10^5 M^−1 s^−1; koff 5.0^*10^−4 s^−1.

[3] = molecular target: T1, Human fibronectin lacking the ED-B domain (h6789) (Homo sapiens, UniProt P02751); experiment: concentration dependent ELISA, negative control fibronectin fragment without ED-B; format: binding; settings: conc.-ELISA, open circles
T1 construct: Human fibronectin lacking the ED-B domain (h6789)

[4] = tested on: L929 cells; experiment: L929 apoptosis assay (TNF-alpha activity); format: cell-based
Description: The physiological TNF-alpha-activity of TNF-alpha-modified ubiquitin based ED-B binding fusions has been determined using the L929 apoptosis assay (Flick et al., 1984 J. Immunol. Methods. 68:167-175). In this assay, TNF-alpha efficiently stimulates cell death in actinomycinD sensitized cells at EC50 values in the picomolar range.
Cells have been resuspended in medium containing FBS and antibiotics. A cell suspension of 100 μl of a densitiy of 3.5×10^5 cells/ml has been seeded into the wells of a 96 well standard cell culture plate followed by over night incubation in a humidified CO2 incubator. Thereafter, the culture medium has been removed and 50 μl of medium containing FBS, ActinomycinD and antibiotics has been added to each well followed by a further 30 min incubation time. Thereafter, 50 μl of the test items, TNF-alpha-modified ubiquitin based ED-B binding-fusions or the human recombinant TNF-alpha control, at an appropriate concentration range of between 10^−7 and 10^−18 M, have been added. After a further 48 h incubation time the metabolic activity as a measure of cell survival was determined using WST-1 reagent (Roche).
Per test item at least three independent experiments have been conducted, each of them in triplicates. […]
The quantitative evaluation is based on the EC50-value, i.e. the value according to the test item concentration promoting the survival of half of the cells.

[5] = tested on: EDB expressing cells; experiment: binding specificity of the TNF-alpha fusion in cell culture (FIG. 17E); format: cell-based
[6] = tested on: murine Balb 3T3-cells; experiment: binding to cell culture cells, Balb 3T3; format: cell-based; settings: 1, 10, 50 nM
Description: (§1) The binding of variant 1041-D11 to cell culture cells was tested. Different cell culture cells were analysed, including normal human fetal lung fibroblast cells having high expression levels of ED-B (Wi38 cells), a mouse embryonic fibroblast cell line (Balb 3T3); a stromal cell line, derived from mouse bone marrow (ST-2) monocytes/macrophages (RAW 264.7), NHDF cells and murine fibroblast cells (LM).
(§2) Similar experiments were performed using different cells types, for example Balb3T3 (ATCC, Kat-Nr. 30-2002), Raw (Lonza, Kat-Nr. BE12-115F/U1), ST-2 (Lonza, Ka t-Nr. BE12-115F/U1).

[7] = tested on: F9 tumor tissues; experiment: accumulation in F9 tumor tissue; format: in vivo, mice; settings: time points between 30 min and 16 h
[8] = tested on: 48 tissues in FDA relevant panel; experiment: tissue panel staining (48 tissues); format: binding
[9] = molecular target: T2, fibronectin fragment 6789 without ED-B (Homo sapiens, UniProt P02751); experiment: complex-formation analysis by SE-HPLC with 6789; format: binding; settings: 0.72 nmol each, 1 h at RT
T2 construct: fibronectin fragment 6789 without ED-B
Description: (§3) For the analysis of complex formation, Tricorn Superdex 75 5/150 GL columns (GE-Healthcare) (V=3 ml) was used, protein amount of 50 μl was applied. Further conditions: buffer: 1×PBS, pH 7.3, flow-rate: 0.3 ml/min, run: 45 min (injection of sample: after 15 min). Condition: 0.72 nmol 1041-D11 protein+0.72 nmol ED-B (herein referred to 67B89 or also as a negative control 6789) incubated for 1 h at RT; then applied to column for analysis of complex-formation. In FIGS. 14A and 14B, only the variant is shown in black, only the target ED-B is shown in blue, the variant binding building a complex with ED-B in pink.

[10] = molecular target: fibronectin fragment 67B89 (ED-B) (Homo sapiens, UniProt P02751); experiment: complex-formation analysis by SE-HPLC with 67B89; format: binding; settings: 0.72 nmol each, 1 h at RT
Description: as §3

[11] = molecular target: ED-B (Homo sapiens, UniProt P02751); experiment: ED-B binding analysis, method not stated (FIG. 7, general statements)
[12] = tested on: human fetal lung fibroblast cells (Wi38); experiment: binding to cell culture cells, Wi38; format: cell-based; settings: immunofluorescence
Description: as §1
The negative control cell type NHDF are primary normal fibroblast cells, which express low levels of EDB-fibronectin (data not shown).
The negative control cells type NHDF are primary normal fibroblast cells, which express low levels of EDB-fibronectin. The cells were plated in chamber-slides (NUNC, 60000 cells/ml). To analyses the binding potential the cells were fixed with 100% MeOH for 5 min at −20° C. To block unspecific binding, the cells were incubated with 5% Horse-serum 1 h 37° C. The cells were tested with the variant 1041-D11, an ED-B specific antibody FV28 CH4/F1 as positive control or UB—2 as negative control with different concentrations 1 h RT. The proving occurred about an incubation with rabbit-a-Strep-Tag-IgG (obtained from GenScript A00875, 1:500) for 1 h and incubation with a-rabbit-IgG*Alexa488-AK (obtained from Invitrogen A11008, 1:1000) for 1 h. The nuclei were stained with DAPI. […] The first 2 lines show the variant and positive control on Wi38-cell line.

[13] = tested on: murine ST-2-cells; experiment: binding to cell culture cells, ST-2; format: cell-based; settings: 1, 10, 50 nM
Description: as §1, §2

[14] = molecular target: T3, ED-B (F9 tumor vasculature) (Mus musculus, UniProt P11276); experiment: immunohistochemistry on F9 tumor tissue sections; format: binding, mice; settings: seven samples; 10 nM to 100 nM / 500 nM
T3 construct: 1041-D11 specifically decorates the vasculature in tissue sections from F9 tumors; from tissue; host or cells: F9 tumor tissue sections from mice
Description: F9 tumor tissues from seven samples were evaluated. […] ED-B is a highly specific marker for tumor vasculature. The target protein EDB is located on the abluminal side of the vessels. 1041-D11 specifically decorates the vasculature in tissue sections from F9 tumors. […] Thus, fusion proteins based on modified ubiquitin specifically binding to ED-B are suitable an ED-B based targeted therapy for cancer.

ED-B containing fibronectin fragment (67B89), sequence (P02751 1085-1537 limits assumed): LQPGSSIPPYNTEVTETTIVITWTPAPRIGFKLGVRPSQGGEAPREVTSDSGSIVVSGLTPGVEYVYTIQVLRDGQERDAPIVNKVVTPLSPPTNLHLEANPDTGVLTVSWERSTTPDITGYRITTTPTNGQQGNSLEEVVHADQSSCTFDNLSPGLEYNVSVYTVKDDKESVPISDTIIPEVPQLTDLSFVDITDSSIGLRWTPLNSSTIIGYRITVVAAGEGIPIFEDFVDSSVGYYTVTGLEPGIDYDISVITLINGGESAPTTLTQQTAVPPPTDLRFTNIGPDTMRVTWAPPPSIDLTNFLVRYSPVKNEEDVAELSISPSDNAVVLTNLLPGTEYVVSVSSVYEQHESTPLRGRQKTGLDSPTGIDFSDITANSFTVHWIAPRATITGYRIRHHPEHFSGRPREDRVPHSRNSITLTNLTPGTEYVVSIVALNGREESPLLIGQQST
T1 sequence (P02751 1085-1446 isoform P02751-1): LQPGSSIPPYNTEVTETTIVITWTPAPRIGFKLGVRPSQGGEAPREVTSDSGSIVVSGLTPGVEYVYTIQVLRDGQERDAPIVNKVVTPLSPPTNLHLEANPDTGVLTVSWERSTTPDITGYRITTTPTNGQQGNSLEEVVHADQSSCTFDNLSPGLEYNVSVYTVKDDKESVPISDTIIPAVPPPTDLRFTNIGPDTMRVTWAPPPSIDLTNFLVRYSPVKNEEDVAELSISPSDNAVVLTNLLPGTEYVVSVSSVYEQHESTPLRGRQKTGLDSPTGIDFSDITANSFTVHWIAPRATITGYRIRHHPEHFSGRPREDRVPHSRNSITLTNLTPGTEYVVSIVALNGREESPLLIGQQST
T2 sequence (P02751 1089-1449 isoform P02751-1): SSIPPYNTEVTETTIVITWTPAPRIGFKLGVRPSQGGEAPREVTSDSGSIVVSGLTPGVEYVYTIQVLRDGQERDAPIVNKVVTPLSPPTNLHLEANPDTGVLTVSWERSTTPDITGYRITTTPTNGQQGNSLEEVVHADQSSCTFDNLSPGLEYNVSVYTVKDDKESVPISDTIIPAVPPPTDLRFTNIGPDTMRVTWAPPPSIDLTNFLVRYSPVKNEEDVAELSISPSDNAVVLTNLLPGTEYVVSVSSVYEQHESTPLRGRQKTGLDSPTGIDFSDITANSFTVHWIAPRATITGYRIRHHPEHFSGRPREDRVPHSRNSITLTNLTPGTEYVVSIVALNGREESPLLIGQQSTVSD
fibronectin fragment 67B89 (ED-B), sequence (P02751 1085-1537 limits assumed): as the sequence (P02751 1085-1537 limits assumed) above
ED-B, sequence (P02751 1266-1356 limits assumed): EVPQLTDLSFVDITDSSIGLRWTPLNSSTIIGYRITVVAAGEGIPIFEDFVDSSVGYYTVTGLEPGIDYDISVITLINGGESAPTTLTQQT
T3 sequence (P11276 33-2477): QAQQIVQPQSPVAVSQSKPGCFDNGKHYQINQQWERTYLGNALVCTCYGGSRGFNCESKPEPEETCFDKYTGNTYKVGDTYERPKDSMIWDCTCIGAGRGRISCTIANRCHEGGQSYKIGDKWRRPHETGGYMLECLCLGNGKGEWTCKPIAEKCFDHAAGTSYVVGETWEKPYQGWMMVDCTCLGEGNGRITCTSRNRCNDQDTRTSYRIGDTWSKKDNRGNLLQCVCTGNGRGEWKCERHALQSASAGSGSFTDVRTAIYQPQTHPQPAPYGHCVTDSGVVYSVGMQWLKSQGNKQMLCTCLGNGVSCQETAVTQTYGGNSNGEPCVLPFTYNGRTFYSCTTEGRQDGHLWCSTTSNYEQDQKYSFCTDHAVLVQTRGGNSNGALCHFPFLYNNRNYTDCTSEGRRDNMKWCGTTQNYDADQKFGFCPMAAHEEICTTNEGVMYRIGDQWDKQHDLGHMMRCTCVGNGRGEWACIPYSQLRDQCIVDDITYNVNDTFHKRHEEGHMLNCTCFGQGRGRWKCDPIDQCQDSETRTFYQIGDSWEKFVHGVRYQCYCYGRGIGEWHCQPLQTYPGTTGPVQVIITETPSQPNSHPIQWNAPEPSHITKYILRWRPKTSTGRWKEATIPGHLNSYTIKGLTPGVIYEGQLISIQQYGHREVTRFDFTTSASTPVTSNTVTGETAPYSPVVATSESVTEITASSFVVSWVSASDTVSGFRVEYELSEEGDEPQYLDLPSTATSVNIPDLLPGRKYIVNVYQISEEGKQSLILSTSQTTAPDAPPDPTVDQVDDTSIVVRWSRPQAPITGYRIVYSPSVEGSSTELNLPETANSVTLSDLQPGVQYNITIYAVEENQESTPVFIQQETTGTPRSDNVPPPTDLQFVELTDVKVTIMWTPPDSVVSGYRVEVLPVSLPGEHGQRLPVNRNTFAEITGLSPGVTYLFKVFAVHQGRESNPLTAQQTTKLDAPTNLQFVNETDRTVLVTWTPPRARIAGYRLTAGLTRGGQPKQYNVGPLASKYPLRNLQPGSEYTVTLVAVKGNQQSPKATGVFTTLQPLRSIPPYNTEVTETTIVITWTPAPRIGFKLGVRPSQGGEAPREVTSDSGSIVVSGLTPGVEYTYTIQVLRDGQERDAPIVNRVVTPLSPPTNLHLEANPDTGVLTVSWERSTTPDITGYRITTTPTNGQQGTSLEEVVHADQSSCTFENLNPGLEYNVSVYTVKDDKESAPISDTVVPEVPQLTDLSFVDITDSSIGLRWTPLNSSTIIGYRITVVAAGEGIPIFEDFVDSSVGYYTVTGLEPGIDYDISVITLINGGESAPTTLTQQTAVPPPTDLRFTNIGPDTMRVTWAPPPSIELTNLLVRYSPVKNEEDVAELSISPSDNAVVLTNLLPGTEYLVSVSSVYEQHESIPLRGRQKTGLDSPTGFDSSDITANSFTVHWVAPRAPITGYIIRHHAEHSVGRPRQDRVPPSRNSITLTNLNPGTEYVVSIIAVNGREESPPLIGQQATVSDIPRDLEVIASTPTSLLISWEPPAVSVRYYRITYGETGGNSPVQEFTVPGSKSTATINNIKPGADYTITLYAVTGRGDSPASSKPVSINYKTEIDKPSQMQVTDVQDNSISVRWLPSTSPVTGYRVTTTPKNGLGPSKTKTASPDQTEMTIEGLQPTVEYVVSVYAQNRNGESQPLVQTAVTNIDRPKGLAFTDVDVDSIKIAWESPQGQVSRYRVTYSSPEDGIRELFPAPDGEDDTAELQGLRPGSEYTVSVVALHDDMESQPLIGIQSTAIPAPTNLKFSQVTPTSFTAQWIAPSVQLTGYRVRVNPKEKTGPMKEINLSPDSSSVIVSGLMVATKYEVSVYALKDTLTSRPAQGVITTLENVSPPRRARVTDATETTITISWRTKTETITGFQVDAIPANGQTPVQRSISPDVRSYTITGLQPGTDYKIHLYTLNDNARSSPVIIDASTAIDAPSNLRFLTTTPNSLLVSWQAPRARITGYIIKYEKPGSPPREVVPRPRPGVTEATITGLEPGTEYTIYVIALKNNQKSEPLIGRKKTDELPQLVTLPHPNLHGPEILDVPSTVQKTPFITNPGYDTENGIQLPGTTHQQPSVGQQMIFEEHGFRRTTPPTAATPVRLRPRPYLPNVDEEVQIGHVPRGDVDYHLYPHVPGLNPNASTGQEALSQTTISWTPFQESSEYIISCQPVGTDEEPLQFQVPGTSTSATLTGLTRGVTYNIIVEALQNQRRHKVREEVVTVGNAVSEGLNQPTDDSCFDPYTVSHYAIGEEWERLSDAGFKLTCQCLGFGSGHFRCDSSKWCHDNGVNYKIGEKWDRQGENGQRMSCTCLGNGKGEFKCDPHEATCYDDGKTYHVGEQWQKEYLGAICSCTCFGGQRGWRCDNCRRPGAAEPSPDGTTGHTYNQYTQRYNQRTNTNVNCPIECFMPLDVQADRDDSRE

## 1041-D11-TNFalpha: fusion protein of hetero-dimeric variant 1041-D11 and TNFα (mouse or human)
[1]; in combination with Melphalan, 7 days, versus mTNFalpha with Melphalan or Melphalan alone
  relative tumor growth: reduces the relative tumor growth more efficiently
[1]; highest dose (6.75 μmol/g)
  effect on tumor growth: no suppressing effect on tumor growth
[1]; lowest dose (0.25 pmol/g)
  effect on tumor growth: seems to retard tumor growth
[2]
  kon: 450000 M⁻¹ s⁻¹
[3]
  binding to negative control fragment 6789: not bound
[4]
  apoptosis inducing TNF-alpha activity: as active as free TNF-alpha
[5]; target(+)
  binding to EDB expressing cells: specifically binds
[5]; target(−)
  cross reaction in serum without ED-B: no cross reaction

## 1041-D11: hetero-dimeric ubiquitin variant: K6W, L8W, K63R, E64K, S65F, T66P; second module K6T, L8Q, Q62W, K63S, E64N, S65W, T66E, Q2R
[6]
  binding on fixed murine Balb 3T3-cells: binds to murine Balb 3T3 cells with high specificity
[7]
  accumulation in F9 tumor tissue: enriched
[8]
  unspecific staining in 48 tissues: no unspecific staining
[9]
  complex formation with 6789 (no ED-B): no significant binding; also recorded: no complex
[10]
  complex formation with 67B89 (ED-B): formation of a complex; also recorded: builds a complex
[2]
  koff: 0.00077 s⁻¹
  kon: 760000 M⁻¹ s⁻¹
[11]
  ED-B binding activity: superior ED-B binding activity
[3]
  binding to negative control fragment 6789: no binding
[12]; different concentrations
  binding on vital Wi38 cells: binds to vital Wi38 cells with high specificity
[12]; 58.7 nM and 587 nM
  binding on fixed Wi38 cells: binds to fixed Wi38 cells with high specificity
[13]
  binding on fixed murine ST-2-cells: binds to murine Balb ST-2 cells with high specificity
[14]
  staining of F9 tumor tissue sections: ED-B specific vascular staining
